≈ marks a conversion by molar mass, not a printed value. Calls of active or inactive are those of the source. The calls are words filed in the database; no cut-off is given here.

By MIC is commonly meant the lowest concentration found to suppress growth. For orientation: IC50 means the midpoint of a concentration-inhibition curve. As usually defined, the AUC is the area under the concentration-time curve, a measure of exposure.

For series [1], the species on record is Homo sapiens. Briefly: Inhibition of linezolid-induced hematological events in orthopedic implant infection patient assessed as thrombocytopenia incidence relative to control. Further details: scale not given: the % may be the effect or the level left. It counts as functional.
For series [2], the species on record is Homo sapiens. In words: Inhibition of linezolid-induced hematological events in orthopedic implant infection patient assessed as reduction of anemia incidence relative to control. It is filed as functional, organism-based.
For series [3], the system named is Homo sapiens. In words: Inhibition of linezolid-induced hematological events in orthopedic implant infection patient assessed as effect on thrombocytopenia at 200 mg, po once daily. It counts as functional, organism-based.
In series [4] the test system is Homo sapiens. In words: Inhibition of linezolid-induced hematological events in orthopedic implant infection patient assessed as effect on anemia at 200 mg, po once daily. It counts as functional, organism-based.
Series [5] is filed under the species Homo sapiens. Briefly: Inhibition of linezolid-induced hematological events in bone infection patient assessed as rate of thrombocytopenia at 125 mg relative to control. It is filed as functional. Also on record: scale not given: the % may be the effect or the level left.
For series [6], the species on record is Homo sapiens. Briefly: Inhibition of linezolid-induced hematological events in bone infection patient assessed as rate of anemia at 125 mg relative to control. It counts as functional. Also on record: scale not given: the % may be the effect or the level left.
A further series concerns Staphylococcus aureus. Briefly: Antibacterial activity against Staphylococcus aureus. It is filed as functional.
Another series deals with Staphylococcus. Briefly: Antibacterial activity against coagulase-negative Staphylococcus. It is filed as functional.
In a further series the test system is Enterococcus. In words: Antibacterial activity against Enterococcus. It counts as functional.
The test system of the next series is Streptococcus. Briefly: Antibacterial activity against Streptococcus. It counts as functional.
The test system of series [7] is mitochondrial protein synthesis. Briefly: Toxicity in rat heart mitochondria assessed as inhibition of mitochondrial protein synthesis. The settings on record: pooled result: one value given for 4 cell lines, strains, targets or settings.
A short description of series [8]: AUC in human at 600 mg administered every 12 hrs measured after 24 hrs. It is filed as ADME, organism-based. Further details: time < 24 hr, dose 600 mg. As to conditions: plasma.
Series [9] can be described thus: Drug level at steady state in human serum at 600 mg administered every 12 hrs. As to conditions: read-out: Drug uptake. It counts as ADME, cell-free.

Turning to `CO[C@H]1/C=C/O[C@@]2(C)Oc3c(C)c(O)c4c(O)c(c(/C=N/N5CCN(C)CC5)c(O)c4c3C2=O)NC(=O)/C(C)=C\C=C\[C@H](C)[C@H](O)[C@@H](C)[C@@H](O)[C@@H](C)[C@H](OC(C)=O)[C@@H]1C` [RIFAMPIN], in the series filed under Homo sapiens [1], the Activity was found to be 5.8%. In the series listed under Homo sapiens [2], the outcome was Active.

On to `Cc1ncc(CO)c(CO)c1O` [PYRIDOXINE], for which the result in the series on Homo sapiens [3] and in the series on Homo sapiens [4] was inactive. Besides, the Activity in the series listed under Homo sapiens [5] is given as 45.8%; in the series filed under Homo sapiens [6], 25%.

For the compound `CC(=O)NC[C@H]1CN(c2ccc(N3CCOCC3)c(F)c2)C(=O)O1` [LINEZOLID], the MIC in the series with Staphylococcus aureus, with Staphylococcus, in the series on Enterococcus and with Streptococcus was 0.5 µg/mL (≈ 1.48 µM) throughout. Moreover, the half-maximal inhibitory concentration (IC50) in series [7] amounted to 3.37 µg/mL (≈ 9.99 µM). In addition, in series [8], the AUC at 24 h was found to be 260 µg·h/mL. The concentration at 12 h in series [9] was 6000 ng/mL.

Values taken from ChEMBL document CHEMBL1157358, “Comparative study of the effects of pyridoxine, rifampin, and renal function on hematological adverse events induced by linezolid” (Antimicrob Agents Chemother, 2007).
